Laboratory results taken from patent US12521356B2, “Compositions and methods for treating pain, inflammation, infection, malaria, and sepsis” (Duke University, priority 2018, dated 2026).

What was measured:
CHEM23 = molecular target: T1, CHEM23 (Homo sapiens, UniProt Q99788); test: Dot blot binding assay, positive control CHEM23
T1 sequence (Q99788 1-373): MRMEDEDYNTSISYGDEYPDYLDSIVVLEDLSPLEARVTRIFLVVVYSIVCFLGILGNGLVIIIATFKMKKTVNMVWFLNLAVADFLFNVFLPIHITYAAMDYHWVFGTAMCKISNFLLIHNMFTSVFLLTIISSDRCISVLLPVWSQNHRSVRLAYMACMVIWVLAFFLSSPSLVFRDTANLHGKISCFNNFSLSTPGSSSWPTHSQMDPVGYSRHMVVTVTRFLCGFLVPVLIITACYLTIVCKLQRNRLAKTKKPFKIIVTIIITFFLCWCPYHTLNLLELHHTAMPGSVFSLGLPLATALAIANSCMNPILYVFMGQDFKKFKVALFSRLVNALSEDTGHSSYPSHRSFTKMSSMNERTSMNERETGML
Procedure: Lipids overlay assay. Lipids membrane coating and protein overlay assay was conducted as previously described (Ji R R, et al. Science 2016, 354, 572-577). Ethanol and chloroform soluble fatty acids were directly loaded on hydrophobic PVDF membrane (Bio-Rad). The fatty acids (NPD1, RvD1, RvE1, and DHA) coated membranes were dried and blocked with 1% BSA. The cell lysate and purified GPR37-V5 protein were incubated with the coating membrane for 2 h, and the binding was detected by anti-V5 tagged antibody (mouse, 1:1000, Thermo scientific, Catalog: 46-0705).
(§1) HEK cell culture and transfection. HEK293 flip-in cell line was purchased from Duke Cell Culture Facility. Cells were cultured in high glucose (4.5 g/L) Dulbecco's Modified Eagle's Medium containing 10% (v/v) fetal bovine serum (Gibco). Transfection (2 μg cDNA) was performed with Lonza electroporation (Lonza) at 70% confluency and the transfected cells were cultured in the same growth medium for 48 h before use. The hGPR37-V5 pLenti304 plasmids were obtained from DNASU (Tempe, AZ), and hGPR32, hChemR23 and hALX pcDNA3 plasmids were provided by Dr. Serhan from Harvard Medical School, Boston.
To determine whether NPD1 and TX14 bind to GPR37, we conducted dot blot assay by coating the blots with different concentrations of NPD1 and TX14 and included RvE1 as a control. […]

ALX = molecular target: T2, ALX (Homo sapiens, UniProt P25090); test: Ca2+ imaging (Fura-2AM) in HEK293 cells transfected with ALX cDNA; format: cell-based; settings: HEK293 cells expressing ALX
T2 construct: host or cells: HEK293 flip-in cells
T2 sequence (P25090 1-351): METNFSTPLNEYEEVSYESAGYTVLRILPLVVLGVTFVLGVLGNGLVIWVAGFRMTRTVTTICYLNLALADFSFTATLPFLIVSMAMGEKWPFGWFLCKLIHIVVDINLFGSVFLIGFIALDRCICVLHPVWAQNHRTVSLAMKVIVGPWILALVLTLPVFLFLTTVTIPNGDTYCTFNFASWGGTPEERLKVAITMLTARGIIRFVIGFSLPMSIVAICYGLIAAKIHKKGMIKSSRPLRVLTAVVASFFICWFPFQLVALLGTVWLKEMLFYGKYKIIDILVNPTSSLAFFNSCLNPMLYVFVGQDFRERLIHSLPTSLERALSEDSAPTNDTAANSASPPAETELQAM
Text: FIG. 10A-FIG. 10C. Characterization of intracellular Ca^2+ changes in HEK293 cells expressing ChemR23, GPR32, and ALX. Ca^2+ imaging with Fura-2AM indicator showing iCa^2+ levels in HEK293 cells transfected with ChemR23 (FIG. 10A), GPR32 (FIG. 10B), and ALX (FIG. 10C) cDNAs. Note that NPD1 fails to elicit iCa^2+ increase in HEK293 cells expressing ChemR23, GPR32, and ALX. […] ATP is included as a positive control. *P<0.05, compared with baseline n=44˜97 cells from 3 cultures. All the data are expressed as mean±s.e.m.
as §1
Calcium imaging. HEK 293 cells, with or without transfection of Gpr37, GPR32, ChemR23 or ALX1 cDNA, were loaded with 5 μM Fura-2AM (Invitrogen) for 1 hour and then were resuspended in normal external buffer (140 NaCl, 5 KCl, 2 CaCl2, 2 MgCl2, 10 HEPES, in mM, titrated to pH 7.4 with NaOH) or external Ca^2+-free buffer (140 NaCl, 2 MgCl2, 5 EGTA, 10 HEPES, in mM, titrated to pH 7.4 with NaOH). Peritoneal macrophages, collected from WT and Gpr37 KO mice, were loaded with 5 μM […] (Invitrogen) for 1 hour and then were resuspended in normal external buffer. Images of the HEK 293 cells and macrophages with the excitation wavelength of 340 nm and 380 nm were captured with a cooled Digital CMOS camera (ORCA-Flash 4.0, Hamamatsu Photonics K.K, Japan). The ratio of fluorescence intensity of the two wavelengths in each experiment was analyzed using MetaFluor (Molecular Devices). The Shutter speed and wavelength was controlled by Lambda DG-4 system (Sutter instrument Co., Novato, CA). Values from each of the experiments were normalized to the baseline ratio of 340/380 nm.
Several SPM receptors have been identified such as ChemR23 for RvE1, GPR32 for RvD1, and ALX for lipoxin A. We transfected human cDNAs of ChemR23, GPR32, and ALX in HEK293 cells and checked Ca^2+ responses following the treatment of each SPM.

binding to CHEM23 (CHEM23)	iCa2+ increase / Ca2+ response (ALX)	SMILES
strong binding	–	CC[C@@H](O)/C=C/C=C\C[C@@H](O)/C=C/C=C/C=C\[C@@H](O)CCCC(=O)O [RvE1]
–	failed to elicit iCa^2+ increase	CC/C=C\C[C@H](O)\C=C/C=C/C=C/[C@H](O)C/C=C\C/C=C\CCC(=O)O [NPD1, neuroprotectin D1]
